“Also recorded” adds a separate entry of the source.
Test system: chloroquine/mefloquine-resistant Dd2 strain of Plasmodium falciparum
Type: cell-based
Details: for antiplasmodial activity (in words): Dd2 strain of P. falciparum

Compound	IC50 (read-out: IC50 against P. falciparum Dd2, chloroquine-resistant Dd2 strain, 72-hour treatment) [µM]	antiplasmodial activity (in words)
(R)-2-[(3E,7E)-9-hydroxy-4,8-dimethylnona-3,7-dien-1-yl]-2,8-dimethyl-2H-chromen-6-ol [Compound 9]	> 117	–
COc1cc(C)c2c(c1)CC[C@@](C)(CC(=O)/C=C(\C)CC/C=C(\C)CO)O2 [Compound 5, (3E,7E)-9-hydroxy-1-[(S)-6-methoxy-2,8-dimethylchroman-2-yl]-4,8-dimethylnona-3,7-dien-2-one]	–	weak antiplasmodial activity; also recorded: moderately active
C/C(=C\CC/C(C)=C/C(=O)C[C@]1(C)CCc2cc(O)cc(C)c2O1)CO [Compound 1, (3E,7E)-9-hydroxy-1-[(S)-6-hydroxy-2,8-dimethylchroman-2-yl]-4,8-dimethylnona-3,7-dien-2-one]	–	inactive
CC1=CCCC(C)(CC(=O)C[C@]2(C)CCc3cc(O)cc(C)c3O2)OC1 (single isomer, unassigned) [Compound 7, 1-[(R or S)-2,6-dimethyl-2,3,4,7-tetrahydrooxepin-2-yl]-3-[(S)-6-hydroxy-2,8-dimethylchroman-2-yl]propan-2-one]	–	weak antiplasmodial activity
CC1=CCCC(C)(CC(=O)C[C@]2(C)CCc3cc(O)cc(C)c3O2)OC1 (single isomer, unassigned) [Compound 6, 1-[(S or R)-2,6-dimethyl-2,3,4,7-tetrahydrooxepin-2-yl]-3-[(S)-6-hydroxy-2,8-dimethylchroman-2-yl]propan-2-one]	–	weak antiplasmodial activity
C/C(=C/CC/C(C)=C/C(=O)C[C@]1(C)CCc2cc(O)cc(C)c2O1)CO [Compound 2, (3E,7Z)-9-hydroxy-1-[(S)-6-hydroxy-2,8-dimethylchroman-2-yl]-4,8-dimethylnona-3,7-dien-2-one]	–	weak antiplasmodial activity; also recorded: most potent biological activity among these compounds

— PMC5866173 (Journal of natural products, 2017)
